Results: patent US12508260B2, “Combination treatments” (Celex Oncology Innovations Limited, priority 2019, dated 2025)
Where two headings read alike, the source gives them in different places.

Experiments:
MDA-MB-231 cells [1] = experiment: Matrigel invasion assay, MDA-MB-231 cells; assay type: cell-based, human
MDA-MB-468 cells [2] = experiment: Matrigel invasion assay, MDA-MB-468 cells; assay type: cell-based, human; conditions: hypoxia, FIG. 8
nNav1.5 protein = experiment: Immunocytochemistry of nNav1.5 protein expression in MDA-MB-231 cells; assay type: cell-based, human; conditions: hypoxia
Protocol: Cells were first seeded in 35×10 mm dishes (Becton Dickinson) at 5×10^5 cell/dish and left to settle overnight. The cells were pre-treated with treatment solutions for 32 h. The assay was only performed under hypoxia conditions. Before seeding the cells, 13 mm coverslips were placed in 24 well plates and 500 μL poly-L-lysine (Sigma) was added to each well for 20 min. After the period of pre-treatments, cells were trypsinized and seeded at 2×10^4 cells/coverslip in 500 μL of their respective treatment solutions. The plates were incubated under hypoxic condition and the assay was allowed for 16 h. At least two coverslips were prepared for each experiment. Upon assay completion, the coverslips were washed with phosphate buffered saline (PBS) before being fixed with 500 μL of 4% paraformaldehyde (Sigma) diluted in PBS. Fixation was for 10 min at room temperature on an orbital shaker. Coverslips were then washed 3×5 min in PBS. One of the coverslips for each condition was permeabilised with 500 μL 0.1% saponin/PBS solution (Sigma) for 4 min and 3×5 min of PBS washes followed. Permeabilised and non-permeabilised coverslips were all were treated with 500 μL 5% bovine serum albumin (BSA)/PBS (pH 7.4, v/v; Dako, Cambridge, UK) blocking agent for 1 h. Coverslips were transferred from the 24 well plate to a humidity chamber and were incubated with 100 μL of the primary antibody (NESOpAb) at a 1:200 dilution of the 0.7 mg/mL stock on an orbital shaker overnight at 3-5° C. The primary antibody used was NESOpAb which can specifically recognize and bind an external epitope sequence of the neonatal isoform of Nav1.5 […] et al., 2005). Coverslips were then rinsed with 3×5 min PBS and incubated with 100 μL of the secondary antibody, goat anti-rabbit IgG Alexa Fluor® 568, at a 1:100 concentration (Dako) for 1 h in darkness at room temperature. Coverslips for negative controls (which were incubated with secondary antibody only) were also prepared to check the specificity of the primary antibody. Coverslips were then rinsed with 3×5 min PBS+0.1% BSA and dipped in distilled water before being mounted on glass slides using mounting medium (Dako) and stored in darkness at 3-5° C. Images were taken with a Canon® digital camera inserted into an Axioimager immunofluorescence and phase contrast inverted microscope (Zeiss) and processed with Remote Capture Software® (Canon). ImageJ was used to analyse and quantify the corrected total cell florescence.

MDA-MB-231 cells [3] = experiment: Cell viability, trypan blue dye exclusion, MDA-MB-231; assay type: cell-based, human; conditions: normoxia or hypoxia, 48 h
Protocol: (§1) Cell viability was determined with the use of trypan blue dye exclusion assay. The assay was undertaken both in normoxic and hypoxic conditions. Upon completion of the treatment period, the media was aspirated and replaced with 0.2 mL of 0.4% trypan blue (Sigma-Aldrich) and 0.8 mL of DMEM media. The dish was mixed and incubated for 10 min in the humidified chamber. The trypan blue solution was replaced with 1 mL of DMEM and the dishes were observed under an inverted microscope (ID 03, Zeiss) at 100× magnification under phase contrast. The MTT assay was used to assess cell metabolic activity by determining the level of NAD (P) H-dependent cellular oxidoreductase enzymes. Cells were seeded in 24 well plates (Becton Dickinson, Oxford, UK) at 2×10^4 cells/well and were allowed to settle overnight before treatment. During the treatment, 500 μL of solution was added to each well and the assays were undertaken in both normoxic and hypoxic conditions. Upon treatment completion, 400 μL of DMEM and 100 μL of MTT was added into each well. […] The plates were rocked at 150 cycles/min for 5 min to mix the formazan with DMSO and the resulting formazan absorbance was measured at 570 nm with a multi-plate reader (ELX800 Universal Microplate Reader, Bio-Tek Instruments, UK). Two measurements for each result were recorded with a 5 min interval and the average was calculated.

VGSC = biological target: T1, VGSC (Homo sapiens, UniProt Q14524, S234P/V215L); experiment: Whole-cell patch clamp of VGSC current in MDA-MB-231 cells; assay type: cell-based
T1 construct: minoxidil on the VGSC activity in MDA-MB-231 cells; endogenous in cells; host or cells: MDA-MB-231 (human breast cancer cell line)
Protocol: Whole-cell patch clamp recordings are performed on cells under superfusion with mammalian physiological saline (MPS). Details of whole-cell recordings have been described previously (Fraser et al., 2003, 2005; Grimes et al., 1995; Laniado et al., 1997). In brief, MPS contains (in mM): 144 NaCl, 5.4 KCl, 1 MgCl2, 2.5 CaCl2), 5 HEPES and 5.6 D-glucose (adjusted to pH 7.3 with NaOH). Patch pipettes (tip resistances, ˜5 MΩ) are filled with a solution designed to block the outward K^+ currents (in mM): NaCl 5, CsCl 145, MgCl2 2, CaCl2) 1, HEPES 10 and EGTA 11, adjusted to pH 7.4 with 1 M CsOH. The estimated intracellular free Ca^2+ concentration is ˜15 nM (Laniado et al., 2001). A holding potential of −100 mV is applied. Standard voltage-clamp protocols are used to study the electrophysiological properties of the VGSC currents. Mainly the following characteristics are studied: peak current (and its density), current-voltage relationship (current normalized to peak), steady-state inactivation/“availability”=test current (I)/maximum current (Imax); recovery from inactivation=test current (It)/control current (Ic). For accurate determination of the acute effect of minoxidil on peak current block, only currents larger than 200 pA are used. Further details of the voltage-clamp protocols, data analysis and curve fitting have been published earlier (Onkal et al., 2008).

MDA-MB-468 cells [4] = experiment: Cell viability, trypan blue dye exclusion, MDA-MB-468; assay type: cell-based, human; conditions: normoxia or hypoxia, 48 h
Protocol: as §1

[5] = 50 μM minoxidil, short-term (acute) application, FIG. 11

SMILES: COc1cc2ncnc(Nc3cccc(Cl)c3)c2cc1OC [AG1478, N-(3-chlorophenyl)-6,7-dimethoxy-4-quinazolinamine]
- effect on invasiveness (normalized to control) (MDA-MB-231 cells [1]; 10 μM AG1478, normoxia, FIG. 10): significant inhibitory effect

SMILES: NC1=N[C@H](O)[C@H]2[C@H]3O[C@]4(O)O[C@@H]([C@@H](O)[C@@]2(N1)[C@@H]4O)[C@]3(O)CO [TTX, Tetrodotoxin]
- effect on invasiveness (normalized to control) (MDA-MB-231 cells [1]): slight effect but this is not significant

SMILES: Nc1cc(N2CCCCC2)nc(N)[n+]1[O-] [minoxidil, 6-(1-Piperidinyl)pyrimidine-2,4-diamine 3-oxide]
- reduction of cell invasion (MDA-MB-468 cells [2]; 2.5 μM minoxidil): 44%
- effect on nNav1.5 protein expression (nNav1.5 protein; 50 μM minoxidil, non-permeabilized cells, FIG. 9a, P=0.58): neither minoxidil nor the drug combination had a significant effect
- reduction of nNav1.5 protein expression (nNav1.5 protein; 50 μM minoxidil, permeabilized cells (total), FIG. 9b): 49%
- effect on cell viability (MDA-MB-231 cells [3]; 50 μM minoxidil): no effect
- reduction of cell invasion (MDA-MB-231 cells [1]; 2.5 μM minoxidil, hypoxia, FIG. 6a): 24%
- reduction of cell invasion (MDA-MB-231 cells [1]; 2.5 μM minoxidil, hypoxia, FIG. 6b): 41%
- reduction of cell invasion (MDA-MB-231 cells [1]; 2.5 μM minoxidil, hypoxia, FIG. 6c): 42%
- reduction of cell invasion (MDA-MB-231 cells [1]; 2.5 μM minoxidil, hypoxia, FIG. 7a): 49%
- reduction of cell invasion (MDA-MB-231 cells [1]; 2.5 μM minoxidil, hypoxia, set with 5 μM ranolazine (FIG. 4b/5b)): 48%
- reduction of cell invasion (MDA-MB-231 cells [1]; 2.5 μM minoxidil, normoxia, FIG. 7b): 53%
- reduction of cell invasion (MDA-MB-231 cells [1]; 5 μM minoxidil, hypoxia, FIG. 5a): 56%
- reduction of cell invasion (MDA-MB-231 cells [1]; 50 μM minoxidil, hypoxia, FIG. 5a): 89%
- effect on VGSC characteristics (VGSC; 50 μM minoxidil, long-term (48 hour) treatment under hypoxia, then washing off, FIG. 12): no change
- effect on peak current (VGSC; [5]): no effect
- effect on steady-state inactivation (VGSC; [5]): shifted the steady-state inactivation to more hyperpolarised potentials
- effect on cell viability (MDA-MB-468 cells [4]; 50 μM minoxidil): no effect

SMILES: COc1ccccc1OCC(O)CN1CCN(CC(=O)Nc2c(C)cccc2C)CC1 (stereo not shown) [ranolazine, N-(2,6-Dimethylphenyl)-4-[2-hydroxy-3-(2-methoxyphenoxy)propyl]-1-piperazineacetamide]
- reduction of cell invasion (MDA-MB-468 cells [2]; 2.5 μM ranolazine): 33%
- reduction of nNav1.5 protein expression (nNav1.5 protein; 5 μM ranolazine, non-permeabilized cells (plasma membrane), FIG. 9a): 30%
- reduction of nNav1.5 protein expression (nNav1.5 protein; 5 μM ranolazine, permeabilized cells (total), FIG. 9b): 43%
- effect on cell viability (MDA-MB-231 cells [3]; 5 μM ranolazine): no effect
- reduction of cell invasion (MDA-MB-231 cells [1]; 0.625 μM ranolazine, hypoxia, FIG. 6c): 24%
- reduction of cell invasion (MDA-MB-231 cells [1]; 1.25 μM ranolazine, hypoxia, FIG. 6b): 32%
- reduction of cell invasion (MDA-MB-231 cells [1]; 2.5 μM ranolazine, hypoxia, FIG. 6a): 36%
- reduction of cell invasion (MDA-MB-231 cells [1]; 2.5 μM ranolazine, hypoxia, FIG. 7a): 30%
- effect on cell invasion (MDA-MB-231 cells [1]; 2.5 μM ranolazine, normoxia, FIG. 7b): no effect
- reduction of cell invasion (MDA-MB-231 cells [1]; 5 μM ranolazine, hypoxia, FIG. 5a): 42%
- reduction of cell invasion (MDA-MB-231 cells [1]; 5 μM ranolazine, hypoxia, set with 2.5 μM minoxidil (FIG. 4b/5b)): 43%
- effect on the transient ('peak') component of VGSC current (VGSC; ranolazine at the concentrations used in the Examples (<<10 µM), FIG. 2): hardly any effect
- effect on cell viability (MDA-MB-468 cells [4]; 5 μM ranolazine): no effect
